Test results reported in ChEMBL document CHEMBL2385042, “Diterpenoids with diverse skeletons from the roots of Euphorbia micractina” (J Nat Prod, 2013).
Activity calls are given as the source filed them. No cut-off for these calls is given here.

What was measured:
[1] = tested on: A549; assay: Cytotoxicity against human A549 cells assessed as cell viability at 10 uM after 96 hrs by MTT assay; assay type: functional, cell-based
[2] = tested on: HCT-8; assay: Cytotoxicity against human HCT8 cells assessed as cell viability at 10 uM after 96 hrs by MTT assay; assay type: functional, cell-based
[3] = tested on: BGC-823; assay: Cytotoxicity against human BGC823 cells assessed as cell viability at 10 uM after 96 hrs by MTT assay; assay type: functional, cell-based
[4] = tested on: Bel-7402; assay: Cytotoxicity against human Bel7402 cells assessed as cell viability at 10 uM after 96 hrs by MTT assay; assay type: functional, cell-based
[5] = tested on: MCF7; assay: Cytotoxicity against human MCF7 cells assessed as cell viability at 10 uM after 96 hrs by MTT assay; assay type: functional, cell-based
[6] = target: T1, Tyrosine-protein phosphatase non-receptor type 1 (Homo sapiens) (UniProt P18031); assay: Inhibition of human recombinant GST-tagged PTP1B using para-nitrophenyl phosphate as substrate assessed as release of para-nitrophenol at 10 uM after 10 mins by spectrophotometric analysis
T1 sequence (whole entry): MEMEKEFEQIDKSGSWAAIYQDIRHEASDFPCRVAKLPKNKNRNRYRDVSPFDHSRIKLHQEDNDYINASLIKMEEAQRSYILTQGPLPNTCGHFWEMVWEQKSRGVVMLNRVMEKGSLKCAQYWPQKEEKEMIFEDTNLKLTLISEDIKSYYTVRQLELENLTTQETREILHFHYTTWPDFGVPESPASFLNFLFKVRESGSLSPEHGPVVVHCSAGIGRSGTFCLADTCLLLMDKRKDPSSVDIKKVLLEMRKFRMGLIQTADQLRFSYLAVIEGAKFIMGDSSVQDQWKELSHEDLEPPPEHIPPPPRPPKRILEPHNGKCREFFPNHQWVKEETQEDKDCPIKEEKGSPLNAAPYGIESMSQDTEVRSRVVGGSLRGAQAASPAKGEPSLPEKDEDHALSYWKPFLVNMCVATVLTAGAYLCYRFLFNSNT

[7] = tested on: Human immunodeficiency virus 1; assay: Antiviral activity against HIV1 infected in human 293T cells assessed as inhibition of viral replication at 10 uM incubated for 15 mins prior to infection measured after 48 hrs by luciferase reporter gene assay; assay type: functional, organism-based
[8] = tested on: KETR3; assay: Cytotoxicity against human Ketr3 cells assessed as cell viability at 10 uM after 96 hrs by MTT assay; assay type: functional, cell-based
[9] = tested on: Human immunodeficiency virus 1; assay: Antiviral activity against HIV1 infected in human 293T cells assessed as inhibition of viral replication incubated for 15 mins prior to infection measured after 48 hrs by luciferase reporter gene assay; assay type: functional, organism-based; settings: Human immunodeficiency virus 1, HEK-293T

Row | SMILES | Activity [1] | Activity [2] | Activity [3] | Activity [4] | Activity [5] | inhibition [6] | Activity [7] | Activity [8] | IC50 [9] [nM]
1 | C[C@H]1C[C@]2(O)C(=O)[C@@]3(C)[C@@H]4O[C@H]4C(C)(C)[C@@H](O)CC[C@@]3(C)[C@H](O)[C@H]2[C@H]1OC(=O)c1ccccc1 | inactive | inactive | inactive | inactive | inactive | inactive | inactive | inactive | 
2 | CO[C@@H]1[C@@H]2[C@H](CC[C@@]3(C)[C@H](O)[C@H]4[C@@H](O)[C@@H](C)C[C@]4(OC(=O)/C=C/c4ccccc4)C(=O)[C@@]23C)C1(C)C | inactive | inactive | inactive | inactive | inactive | inactive | inactive | inactive | 
3 | C[C@H]1C[C@]2(O)C(=O)[C@@]3(C)[C@@H]4[C@@H](O)C(C)(C)[C@H]4CC[C@@]3(C)[C@H](O)[C@H]2[C@H]1OC(=O)/C=C/c1ccccc1 | inactive | inactive | inactive | inactive | inactive | inactive | inactive | inactive | 
4 | CCO[C@@H]1[C@@H]2[C@H](CC[C@@]3(C)[C@H](O)[C@H]4[C@@H](OC(=O)c5ccccc5)[C@@H](C)C[C@]4(O)C(=O)[C@@]13C)C2(C)C | inactive | inactive | inactive | inactive | inactive | inactive | inactive | inactive | 
5 | CCO[C@@H]1[C@@H]2[C@H](CC[C@@]3(C)[C@H](O)[C@H]4[C@@H](OC(=O)/C=C/c5ccccc5)[C@@H](C)C[C@]4(O)C(=O)[C@@]13C)C2(C)C | inactive | inactive | inactive | inactive | inactive | inactive | inactive | inactive | 
6 | C[C@H]1C[C@]2(O)C(=O)[C@@]3(C)[C@@H]4O[C@H]4C(C)(C)[C@@H](O)CC[C@@]3(C)[C@H](O)[C@H]2[C@H]1OC(=O)/C=C/c1ccccc1 | inactive | inactive | inactive | inactive | inactive | inactive | inactive | inactive | 
7 | CO[C@@H]1[C@@H]2[C@H](CC[C@@]3(C)[C@H](O)[C@H]4[C@@H](OC(=O)/C=C/c5ccccc5)[C@@H](C)C[C@]4(O)C(=O)[C@@]13C)C2(C)C | inactive | inactive | inactive | inactive | inactive | inactive | inactive | inactive | 
8 | CO[C@@H]1[C@@H]2[C@H](CC[C@@]3(C)[C@H](O)[C@H]4[C@@H](O)[C@@H](C)C[C@]4(OC(=O)c4ccccc4)C(=O)[C@@]13C)C2(C)C | inactive | inactive | inactive | inactive | inactive | inactive | inactive | inactive | 
9 | C[C@H]1C[C@]2(O)C(=O)[C@@]3(C)[C@H](O)[C@@H]4[C@H](CC[C@@]3(C)[C@H](O)[C@H]2[C@H]1OC(=O)/C=C/c1ccccc1)C4(C)C | inactive | inactive | inactive | inactive | inactive | inactive | inactive | inactive | 
10 | O=C1Nc2ccc(Cl)cc2[C@@](C#CC2CC2)(C(F)(F)F)O1 [EFAVIRENZ] |  |  |  |  |  |  |  |  | 60
11 | C[C@H]1C[C@]2(O)C(=O)[C@@]3(C)[C@@H]4[C@@H](O)C(C)(C)[C@H]4CC[C@@]3(C)[C@H](O)[C@H]2[C@H]1OC(=O)c1ccccc1 | inactive | inactive | inactive | inactive | inactive | inactive | inactive | inactive | 
12 | C[C@H]1C[C@]2(O)C(=O)[C@@]3(C)[C@H](O)[C@@H]4[C@H](CC[C@@]3(C)[C@H](O)[C@H]2[C@H]1OC(=O)c1ccccc1)C4(C)C | inactive | inactive | inactive | inactive | inactive | inactive | inactive | inactive | 
